As a reminder, the IC50 is the concentration that gives 50% inhibition. A low value points to greater potency in that assay.

The test system of the first test is HIF-2α transcriptional activity. The test can be described thus: Hypoxia-responsive element-driven luciferase (HRE-Luc) screen. In kind it is cell-based, human. To be noted: 786-0 ccRCC cells stably expressing HRE-Luc; 24 h treatment; range of IC50 values. Here is the method: Screens for inhibitory activity of compounds described herein were performed using 786-0 ccRCC cells that stably express HRE-Luc: 5 copies of the hypoxia-responsive element (HRE) fused to the pGL3 luciferase reporter (Promega Corp, Madison WI). 786-0 cells are pVHL deficient and thus constitutively express HIF-2α independently of cellular oxygen tension. Since 786-0 cells lack HIF-1α, HRE-driven luciferase activity is primarily HIF-2α driven, and has been previously validated. Cells were maintained at log phase growth in […] (DMEM) with 10% FBS in a humidified incubator at 37° C. with 5% CO2. For screening assays, cells were seeded at a density of 4,000 cells in 50 μl of complete media/well in quadruplicate wells/point in a 96-well plate. After 24 h, 50 μl of a 2× concentration of test compound was added to each well. Compounds were diluted from a 5-10 mM stock in DMSO and final concentrations of DMSO in each well in controls and treated wells were kept constant at ≤0.6% DMSO. After 24 h treatment, luciferase activity was measured using the Steady-Glo Luciferase assay system (Promega Corp) according to the manufacturer's protocol. Cell viability was measured in quadruplicate parallel wells using resazurin as recommended by the manufacturer (R&D systems, Minneapolis, MN). Data for luciferase and resazurin were normalized to DMSO treated controls (defining 100%) and wells containing assay reagent but no cells (defining 0%) and graphed using the log inhibitor versus normalized response option in Graphpad Prism 9.3.1 software. Representative data determined using Steady-Glo luciferase and resazurin are shown in FIGS. 1A and 1B respectively, with error bars showing SD. Filled diamonds, empty squares and empty triangles indicate treatment with 3, 8 and 22 respectively with results for HRE-Luc shown in FIG. 1A.
`COc1cccc2nc(Nc3nnc(C4CCC(OC)CC4)o3)[nH]c12` (single isomer, unassigned) [Compound 75-isomer-2, N-(7-methoxy-1H-benzo[d]imidazol-2-yl)-5-(4-methoxycyclohexyl)-1,3,4-oxadiazol-2-amine] displayed a 50% inhibitory concentration (IC50) of 10 to 50 µM.

As for `COc1ccc(-c2nnc(Nc3nc4c(Cl)nccc4[nH]3)o2)cc1` [Compound 23, N-(4-chloro-1H-imidazo[4,5-c]74yridine-2-yl)-5-(4-methoxyphenyl)-1,3,4-oxadiazol-2-amine], the 50% inhibitory concentration (IC50) lay in the range of 10 to 50 µM.

Still in this test, the particulars now being: Homo sapiens, 786-0, 24 h, 786-0 ccRCC cells stably expressing HRE-Luc; 24 h treatment; range of IC50 values.
`COc1cccc2nc(Nc3nnc(C4CCC(OC)CC4)o3)[nH]c12` (single isomer, unassigned) [Compound 75-isomer-1, N-(7-methoxy-1H-benzo[d]imidazol-2-yl)-5-(4-methoxycyclohexyl)-1,3,4-oxadiazol-2-amine] displayed an IC50 of less than 10 µM.

In turn, `COc1ccc2[nH]c(Nc3nnc(-c4ccc(F)cc4)o3)nc2n1` [Compound 4, 5-(4-Fluorophenyl)-N-(5-methoxy-1H-imidazo[4,5-b]pyridin-2-yl)-1,3,4-oxadiazol-2-amine] yielded a half-inhibitory concentration (IC50) of less than 10 µM.

Compound `Fc1ccc(-c2nnc(Nc3nc4cnc(Cl)cc4[nH]3)o2)cc1` [Compound 5, N-(6-Chloro-1H-imidazo[4,5-c]pyridin-2-yl)-5-(4-fluorophenyl)-1,3,4-oxadiazol-2-amine] gave a half-maximal inhibitory concentration (IC50) of 10 to 50 µM.

Consider `Fc1ccc(-c2nnc(Nc3nc4cnc(C(F)(F)F)cc4[nH]3)o2)cc1` [Compound 6, 5-(4-Fluorophenyl)-N-(6-(trifluoromethyl)-1H-imidazo[4,5-c]pyridin-2-yl)-1,3,4-oxadiazol-2-amine], for which the IC50 lay within 10 to 50 µM.

`Cc1cncc2nc(Nc3nnc(-c4ccc(F)cc4)o3)[nH]c12` [Compound 7, 5-(4-Fluorophenyl)-N-(7-methyl-1H-imidazo[4,5-c]pyridin-2-yl)-1,3,4-oxadiazol-2-amine] registered an IC50 of 10 to 50 µM.

For `Fc1ccc(-c2nnc(Nc3nc4ncccc4o3)o2)cc1` [Compound 8, N-(5-(4-Fluorophenyl)-1,3,4-oxadiazol-2-yl)oxazolo[4,5-b]pyridin-2-amine], the concentration for half-maximal inhibition (IC50) was more than 10 µM.

In the case of `COc1ccc2nc(Nc3nnc(-c4ccc(F)cc4)o3)sc2n1` [Compound 9, 5-(4-Fluorophenyl)-N-(5-methoxythiazolo[5,4-b]pyridin-2-yl)-1,3,4-oxadiazol-2-amine], the IC50 lay in the range of 50 to 100 µM.

Consider `Fc1ccc(-c2nnc(Nc3nc4cnc(N5CCOCC5)cc4[nH]3)o2)cc1` [Compound 10, 5-(4-Fluorophenyl)-N-(6-morpholino-1H-imidazo[4,5-c]pyridin-2-yl)-1,3,4-oxadiazol-2-amine], for which the IC50 lay in the range of 10 to 50 µM.

For the compound `Fc1ccc(-c2nnc(Nc3nc4cnc(Cl)nc4[nH]3)o2)cc1` [Compound 14, N-(2-Chloro-9H-purin-8-yl)-5-(4-fluorophenyl)-1,3,4-oxadiazol-2-amine], the IC50 fell in the range of 10 to 50 µM.

Turning to `Fc1ccc(-c2nnc(Nc3nc4ccnc(N5CCOCC5)c4[nH]3)o2)cc1` [Compound 17, 5-(4-Fluorophenyl)-N-(4-morpholino-3H-imidazo[4,5-c]pyridin-2-yl)-1,3,4-oxadiazol-2-amine], the IC50 lay within 10 to 50 µM.

In turn, `Fc1ccc(-c2nnc(Nc3nc4cncc(N5CCOCC5)c4[nH]3)o2)cc1` [Compound 18, 5-(4-Fluorophenyl)-N-(7-morpholino-1H-imidazo[4,5-c]pyridin-2-yl)-1,3,4-oxadiazol-2-amine] displayed an IC50 of 10 to 50 µM.

In turn, `COc1cccc(-c2nccc3nc(Nc4nnc(-c5ccc(F)cc5)o4)[nH]c23)c1` [Compound 19, 5-(4-Fluorophenyl)-N-(4-(3-methoxyphenyl)-3H-imidazo[4,5-c]pyridin-2-yl)-1,3,4-oxadiazol-2-amine] registered a concentration for half-maximal inhibition (IC50) of 50 to 100 µM.

Compound `COc1nccc2[nH]c(Nc3nnc(-c4ccc(C(F)(F)F)cc4)o3)nc12` [Compound 20, N-(4-methoxy-1H-imidazo[4,5-c]pyridin-2-yl)-5-(4-(trifluoromethyl)phenyl)-1,3,4-oxadiazol-2-amine] had a half-maximal inhibitory concentration (IC50) of 10 to 50 µM.

`COc1nccc2[nH]c(Nc3nnc(-c4ccc(OC(F)(F)F)cc4)o3)nc12` [Compound 21, N-(4-methoxy-1H-imidazo[4,5-c]pyridin-2-yl)-5-(4-(trifluoromethoxy)phenyl)-1,3,4-oxadiazol-2-amine] showed a half-maximal inhibitory concentration (IC50) of 10 to 50 µM.

Regarding `COc1ccc(-c2nnc(Nc3nc4c(OC)nccc4[nH]3)o2)cc1OC` [Compound 26, N-(4-Methoxy-1H-imidazo[4,5-c]pyridin-2-yl)-5-(3,4-dimethoxyphenyl)-1,3,4-oxadiazol-2-amine], the 50% inhibitory concentration (IC50) is less than 10 µM.

In turn, `COc1nccc2[nH]c(Nc3nnc(-c4ccc5c(c4)OCO5)o3)nc12` [Compound 27, N-(4-Methoxy-1H-imidazo[4,5-c]pyridin-2-yl)-5-(benzo[d][1,3]dioxol-5-yl)-1,3,4-oxadiazol-2-amine] registered a half-inhibitory concentration (IC50) of less than 10 µM.

With `COc1nccc2[nH]c(Nc3nnc(-c4ccc(N(C)C)cc4)o3)nc12` [Compound 28, N-(4-Methoxy-1H-imidazo[4,5-c]pyridin-2-yl)-5-(4-(dimethylamino)phenyl)-1,3,4-oxadiazol-2-amine], the IC50 was less than 10 µM.

`COc1nccc2[nH]c(Nc3nnc(-c4ccc(C)cc4)o3)nc12` [Compound 29, N-(4-methoxy-1H-imidazo[4,5-c]pyridin-2-yl)-5-(p-tolyl)-1,3,4-oxadiazol-2-amine]: the IC50 was less than 10 µM.

Consider `COc1ccc(-c2nnc(Nc3nc4ncccc4o3)o2)cc1` [Compound 30, N-(5-(4-Methoxyphenyl)-1,3,4-oxadiazol-2-yl)oxazolo[4,5-b]pyridin-2-amine], for which the concentration for half-maximal inhibition (IC50) is less than 10 µM.

`Fc1ccc(-c2nnc(Nc3nc4ccnc(-c5ccc6c(c5)OCO6)c4[nH]3)o2)cc1` [Compound 31, N-(4-(Benzo[d][1,3]dioxol-5-yl)-3H-imidazo[4,5-c]pyridin-2-yl)-5-(4-fluorophenyl)-1,3,4-oxadiazol-2-amine] displayed an IC50 of 10 to 50 µM.

With `COc1nccc2[nH]c(Nc3nnc(-c4ccc(C#N)cc4)o3)nc12` [Compound 32, 4-(5-((4-Methoxy-1H-imidazo[4,5-c]pyridin-2-yl)amino)-1,3,4-oxadiazol-2-yl) benzonitrile], the concentration for half-maximal inhibition (IC50) is more than 10 µM.

As for `COc1ccc(-c2nnc(Nc3nc4c(OC)nccc4[nH]3)o2)cc1F` [Compound 33, 5-(3-Fluoro-4-methoxyphenyl)-N-(4-methoxy-1H-imidazo[4,5-c]pyridin-2-yl)-1,3,4-oxadiazol-2-amine], the half-inhibitory concentration (IC50) was more than 10 µM.

In turn, `COc1ccc(-c2nnc(Nc3nc4c(OC)nccc4[nH]3)o2)cn1` [Compound 39, N-(4-Methoxy-1H-imidazo[4,5-c]pyridin-2-yl)-5-(6-methoxypyridin-3-yl)-1,3,4-oxadiazol-2-amine] gave an IC50 of less than 10 µM.

On to `COc1nccc2[nH]c(Nc3nnc(-c4ccc(OC5CC5)cc4)o3)nc12` [Compound 41, 5-(4-Cyclopropoxyphenyl)-N-(4-methoxy-1H-imidazo[4,5-c]pyridin-2-yl)-1,3,4-oxadiazol-2-amine], for which the IC50 was less than 10 µM.

Compound `COc1nccc2[nH]c(Nc3nnc(-c4ccc(OC(C)C)cc4)o3)nc12` [Compound 42, 5-(4-Isopropoxyphenyl)-N-(4-methoxy-1H-imidazo[4,5-c]pyridin-2-yl)-1,3,4-oxadiazol-2-amine] came in with an IC50 of 10 to 50 µM.

In turn, `COc1ccc(-c2csc(Nc3nc4c(OC)nc(C)cc4[nH]3)n2)cc1C#N` [Compound 53, 2-Methoxy-5-(2-((4-methoxy-6-methyl-1H-imidazo[4,5-c]pyridin-2-yl)amino)thiazol-4-yl)benzonitrile] came in with a concentration for half-maximal inhibition (IC50) of more than 100 µM.

As to `COc1ccc(-c2nnc(Nc3nc4c(OC)nc(C)cc4[nH]3)o2)cc1OC` [Compound 55, 5-(3,4-dimethoxyphenyl)-N-(4-methoxy-6-methyl-1H-imidazo[4,5-c]pyridin-2-yl)-1,3,4-oxadiazol-2-amine], the concentration for half-maximal inhibition (IC50) is less than 10 µM.

Compound `COc1ccc(-c2cnc(Nc3nc4c(OC)nccc4[nH]3)o2)cc1OC` [Compound 59, 5-(3,4-dimethoxyphenyl)-N-(4-methoxy-1H-imidazo[4,5-c]pyridin-2-yl)oxazol-2-amine] returned a half-maximal inhibitory concentration (IC50) of 50 to 100 µM.

Turning to `COc1nccc2[nH]c(Nc3nnc([C@H]4CC[C@@H](OC)CC4)o3)nc12` [Compound 62, N-(4-methoxy-1H-imidazo[4,5-c]pyridin-2-yl)-5-((1s,4s)-4-methoxycyclohexyl)-1,3,4-oxadiazol-2-amine], the IC50 is less than 10 µM.

The compound `COc1nccc2[nH]c(Nc3nnc([C@H]4CC[C@H](OC)CC4)o3)nc12` [Compound 63, N-(4-methoxy-1H-imidazo[4,5-c]pyridin-2-yl)-5-((1r,4r)-4-methoxycyclohexyl)-1,3,4-oxadiazol-2-amine] came in with a 50% inhibitory concentration (IC50) of less than 10 µM.

Regarding `COc1nccc2nc(Nc3nnc(C4CCN(C)CC4)o3)[nH]c12` [Compound 64, N-(4-methoxy-3H-imidazo[4,5-c]pyridin-2-yl)-5-(1-methylpiperidin-4-yl)-1,3,4-oxadiazol-2-amine], the IC50 is less than 10 µM.

The values are drawn from patent US20250346588A1, “IMIDAZOPYRIDINE AND OXAZOLOPYRIDINE DERIVATIVES AND ANALOGS THEREOF, METHODS OF PREPARATION THEREOF, METHODS OF HIF-1/2A PATHWAY INHIBITION, AND INDUCTION OF FERROPTOSIS” (KUDA THERAPEUTICS, INC., priority 2022, published 2025).
